Experimental data from ChEMBL document CHEMBL1201862, “PubChem BioAssay data set” (2004).
Active and inactive are the calls of the source. Rule as the data show it: actives have a measured IC50 and inactives only a lower limit.

These molecules were tested against Envelope glycoprotein gp160 (Human immunodeficiency virus 1, UniProt Q6QLK5) (assay: cell-free HIV fusion peptide-binding blockers – biochemical, uHTS, fluorescence dequenching, […] (AID 1986)).
Envelope glycoprotein gp160, sequence (Q6QLK5 whole entry, the tested form may be a part): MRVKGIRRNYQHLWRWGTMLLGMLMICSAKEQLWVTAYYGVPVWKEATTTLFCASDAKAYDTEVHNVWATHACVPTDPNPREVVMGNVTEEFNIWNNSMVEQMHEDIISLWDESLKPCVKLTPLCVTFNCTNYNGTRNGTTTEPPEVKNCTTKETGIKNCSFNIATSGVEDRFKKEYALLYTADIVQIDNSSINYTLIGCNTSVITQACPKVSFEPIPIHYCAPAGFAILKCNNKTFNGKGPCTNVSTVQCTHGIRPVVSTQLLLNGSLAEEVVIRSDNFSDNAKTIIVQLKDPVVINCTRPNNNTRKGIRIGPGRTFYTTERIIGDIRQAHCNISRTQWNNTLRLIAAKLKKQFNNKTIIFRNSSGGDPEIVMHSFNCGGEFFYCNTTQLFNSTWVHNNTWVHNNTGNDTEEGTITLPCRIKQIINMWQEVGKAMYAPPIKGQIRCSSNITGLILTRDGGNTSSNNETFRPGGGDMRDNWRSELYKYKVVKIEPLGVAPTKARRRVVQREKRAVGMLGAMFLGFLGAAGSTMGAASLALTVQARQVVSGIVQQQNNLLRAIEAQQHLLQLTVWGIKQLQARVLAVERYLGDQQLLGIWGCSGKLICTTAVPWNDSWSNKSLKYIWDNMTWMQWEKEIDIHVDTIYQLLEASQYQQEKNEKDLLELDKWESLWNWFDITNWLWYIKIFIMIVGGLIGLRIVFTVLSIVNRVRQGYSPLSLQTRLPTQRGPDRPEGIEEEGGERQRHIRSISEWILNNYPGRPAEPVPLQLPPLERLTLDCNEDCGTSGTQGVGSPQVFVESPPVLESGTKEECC
In the case of `Cc1ccc(-c2cc(C(=O)Nc3ccc(S(=O)(=O)Nc4onc(C)c4C)cc3)c3ccccc3n2)cc1`, the IC50 is reported as 18.1 µM (active). In the case of `CCOc1cc(/C=C2\SC(=S)N(C(C(=O)O)c3ccccc3)C2=O)ccc1O` (stereo not drawn), the IC50 is reported as 22.6 µM (active). For `O=C(O)c1cc(NN=C2c3ccccc3-c3ccccc32)ccc1Cl`, the IC50 was 23.7 µM (active).
